According to patent publication US20260207666A1, “CD38 AS INTEGRATION SITE FOR ENHANCED FUNCTION OF GENE-MODIFIED IMMUNE CELLS” (RESEARCH INSTITUTE AT NATIONWIDE CHILDREN'S HOSPITAL, priority 2022, published 2026):
“Also recorded” adds a separate entry of the source.

Experiments:
human primary NK cells = experiment: CD38 and CD38-CAR expression by flow cytometry in NK cells; type: cell-based; settings: CAR inserted at CD38 locus, 75,000 vg/cell AAV6, seven days post-transduction (FIG. 18C)
Protocol: (§1) CD38^KO/CD38-CAR T cells or NK cells were generated by electroporation of HiFi Cas9 Nuclease V3 (Integrated DNA Technologies, Coralville, IA) and gRNA targeting exon 1 of the CD38 gene (5-[…]) (SEQ ID NO: 1). Knock-out cells were then returned to culture media and transduced within 30 minutes with 75,000 vg/cell of Adeno-Associated Virus Type 6 (AAV6, Andelyn Biosciences) vector containing the CAR expression cassette with CD38 homology arms.
(§2) Cells were stained in PBS buffer containing 2% FBS using anti-CD38/PE (Miltenyi Biotec, clone REA572), CD38 Fc Chimera Protein (R&D Systems, rhCD38) followed by secondary staining with Alexa Fluor 647 AffiniPure Goat Anti-Human IgG (Jackson ImmunoResearch), and Tonbo Ghost Dye 450 (Tonbo Biosciences, San Diego, CA, USA). See representative gating strategy (FIG. 25).

human primary T cells = experiment: CD38 and CD38-CAR expression by flow cytometry in T cells; type: cell-based; settings: T cells, 75,000 vg/cell AAV6 (FIG. 22B)
Protocol: Human primary T cells were isolated from donor buffy coats using RosetteSep™ Human T Cell Enrichment Cocktail (Stem Cell Technologies, Vancouver, BC, Canada) as described for NK cells. Isolated T cells were stimulated on day 0 with Human T-Activator CD3/CD28 (Thermo Fisher Scientific). Stimulated T cells were cultured in RPMI 1640 media plus Glutamax, 10% FBS at a concentration of 1.0e6 cells/mL and supplemented with 50 IU/mL human recombinant IL-7 and IL-15 (Biolegend, San Diego, CA) every 2-3 days.
Two days after cytokine activation the T cells were electroporated and transduced as described below. After transduction the cells were expanded in RPMI 1640 media plus Glutamax, 10% FBS at 1.0e6 cells/mL with IL-7 and IL-15 supplemented at 50 IU/mL every 2-3 days for up to 10 days.
as §1, with “arms. […]” for “arms.”

Raji = experiment: 4-hour calcein AM cytotoxicity assay; type: cell-based, human; settings: Raji (BL), 4-hour assay
Protocol: (§3) CSTX002 feeder cells, derived from K562 and transduced to express membrane-bound IL-21 and 4-1BBL (referred to hereafter as FC21) were cultured in RMPI 1640 media containing 10% fetal bovine serum (FBS) at 37° C., 5% CO2. FC21 were treated with 100 Gy x-ray irradiation (Faxitron, Tucson AZ) prior to coculture with NK cells. Human AML cell line MV4-11, MM cell lines MM1S and H929, and BL cell lines Daudi and Raji were purchased from American type culture collection (ATCC). Primary human AML cells (AML10) were obtained from a pediatric patient with relapsed M5 AML and passaged in NOD-SCID mice. Primary human AML, Pre-T ALL, T-PLL, MM, and HSTCL were obtained from the Ohio State University Comprehensive Cancer Center Leukemia Tissue Bank. Tumor cell lines were cultured in RPMI 1640 media plus Glutamax, 10% FBS and routinely tested for mycoplasma contamination. Anonymized human buffy coats were obtained from the American Red Cross of Ohio (Columbus, OH, USA) as healthy donor lymphocyte source material, designated not human subjects research by the institutional review board.
(§4) 4-hour cytotoxicity assays were performed using calcein AM (Fisher Scientific, Hampton, NH). Briefly, target tumor cells were stained with 2 μg/mL calcein AM and co-cultured with effector cells at the indicated Effector:Target ratios. After 4 hours, culture supernatant was assessed by fluorimetry and percent specific lysis calculated using maximum and minimum controls. Cytotoxicity is plotted as percent specific lysis.

H929 = experiment: 4-hour calcein AM cytotoxicity assay; type: cell-based, human; settings: H929 (MM), 4-hour assay
Protocol: as §3, §4

MV4-11 = experiment: 4-hour calcein AM cytotoxicity assay; type: cell-based, human; settings: MV4-11 (AML), 4-hour assay
Protocol: as §3, §4

CD38^KO NK cells = experiment: Effect of ATRA on NK cell function or viability; type: cell-based, human
MM cell lines = experiment: CD38 surface expression after ATRA treatment (flow cytometry); type: cell-based, human; settings: intermediate to high CD38-expressing MM cell lines, 10 nM ATRA for 48 hours
Text: as §2
(§5) To further augment the antitumor activity of the CD38-CAR NK cells, we explored combination therapy with ATRA. ATRA is a differentiation agent that upregulates CD38 expression in many cell types. Across cell lines of AML, MM, and BL, we observed variable responses in CD38 expression after treatment with 10 nM ATRA for 48 hours (FIG. 20A). […] Thus, ATRA appears to have a cell line dependent effect on the increase in CD38 surface density and sensitivity to CAR NK cell killing (FIG. 20A, 20C).

AML cell lines = experiment: as above; type: cell-based, human; settings: AML cell lines with lowest baseline CD38, 10 nM ATRA for 48 hours
Text: as §2, §5

BL = experiment: as above; type: cell-based, human; settings: high CD38-expressing BL, 10 nM ATRA for 48 hours
Text: as §2, §5

primary AML cells = experiment: Mass cytometry lysis assay; type: cell-based, human; settings: with ATRA, prior to co-culture with NK cells
Protocol: A primary AML patient cell sample (OSU leukemia tissue bank) was cultured in a 6-well plate (pre-coated with rat tail collagen [Corning]) in serum free media (SFEM) supplemented with a cytokine cocktail (IL-6, IL-3, FLT3, GMCSF, GCSF, and TPO at 6.66 ng/mL, EPO at 3.33 ng/mL, SCF at 20 ng/mL; Stem Cell Technologies). The primary AML samples were cultured for 24 hours with or without 10 nM ATRA. After 24 hours, wild-type or CD38^KO/CD38 CAR-NK cells were added at a ratio of 1:1 and co-cultured for 24 hours. Control wells were cultured in parallel. Cell were stained and events were acquired on the Helios CyTOF system (Fluidigm, Toronto, Canada). Cells were identified using markers and analyzed using SPADE.

## V4: Isatuximab-based anti-CD38 CAR construct with reversed heavy/light chain order, SEQ ID NO: 29/30
Human primary NK cells
  median AAV6 transduction efficiency: 61.9%
Human primary T cells
  median AAV6 transduction efficiency: 35.9%
Raji
  cytotoxicity compared to wildtype cells: significant increase in cytotoxicity
H929
  cytotoxicity compared to wildtype cells: significant increase in cytotoxicity
MV4-11
  cytotoxicity compared to wildtype cells: significant increase in cytotoxicity

## CC1=C(/C=C/C(C)=C/C=C/C(C)=C/C(=O)O)C(C)(C)CCC1 [ATRA, all-trans retinoic acid]
CD38^KO NK cells
  adverse effect on function or viability of CD38^KO NK cells: did not have any adverse effect
MM cell lines
  CD38 expression after ATRA treatment: minor increase
AML cell lines
  CD38 expression after ATRA treatment: greatest proportional increase; also recorded: greatest increases
BL
  CD38 expression after ATRA treatment: no observable increase
Primary AML cells
  live cell population of primary AML cells: 77.5%

## V3: Isatuximab-based anti-CD38 second-generation CAR construct with CD3ζ, 41BB and CD8α TM/hinge, SEQ ID NO: 27/28
Human primary NK cells
  median AAV6 transduction efficiency: 60.7%
Human primary T cells
  median AAV6 transduction efficiency: 44.4%
Raji
  cytotoxicity compared to wildtype cells: significant increase in cytotoxicity
H929
  cytotoxicity compared to wildtype cells: significant increase in cytotoxicity
MV4-11
  cytotoxicity compared to wildtype cells: significant increase in cytotoxicity
